Molecules are shown by their SMILES.

Experimental findings from patent US20090036512A1, “FUNGICIDAL ACTIVE COMPOUND COMBINATION” (priority 2005, published 2009) are described below.

The subject of the assay is Leptosphaeria nodorum. Nature of the assay: Leptosphaeria nodorum test (wheat)/protective. To be noted: Parastagonospora nodorum, 240 h, protective, evaluation 10 days after inoculation. Format: in vivo. As to the method:
Leptosphaeria nodorum test (wheat)/protective Solvent: 50 parts by weight of N,N-dimethylacetamide Emulsifier: 1 part by weight of alkylaryl polyglycol ether To prepare a suitable preparation of active compound, 1 part by weight of active compound or active compound combination is mixed with the stated amounts of solvents and emulsifier, and the concentrate is diluted with water to the desired concentration, or a commercial formulation of active compound or active compound combination with water is diluted with water to the desired concentration. To test for protective activity, young plants are sprayed with the active compound preparation at the stated application rate. After the spray coating has dried on, the plants are sprayed with a spore suspension of Leptosphaeria nodorum. The plants remain in an incubation cabin at 20° C. and 100% relative atmospheric humidity for 48 hours. The plants are placed in a greenhouse at a temperature of about 20° C. and a relative atmospheric humidity of 80%. Evaluation is carried out 10 days after inoculation. Here, 0% means an efficacy which corresponds to that of the control, whereas an efficacy of 100% means that no infection is observed.

For the compound `O=C1C2CC=CCC2C(=O)N1SC(Cl)(Cl)Cl` (stereo not shown) [Captan, 3a,4,7,7a-tetrahydro-2-[(trichloromethyl)thio]-1H-isoindole-1,3(2H)-dione], the Emax at 82.5 ppm (application rate 82.5 ppm, read-out: % efficacy (converted)) is 50%. In addition, under “application rate 375 ppm, read-out: % efficacy”, the Emax at 375 ppm is 25%. For the setting “application rate 500 ppm, read-out: % efficacy”, the Emax at 500 ppm was found to be 25%.
Consider `CON=C(C(=O)OC)c1ccccc1CO/N=C(\C)c1cccc(C(F)(F)F)c1` [Trifloxystrobin, 2-[α-{[(α-methyl-3-trifluoromethyl-benzyl)imino]-oxy}-o-tolyl]-glyoxylic acid methyl ester O-methyloxime], for which the Emax at 25 ppm (application rate 25 ppm, read-out: % efficacy) is 50%.
